# According to patent US12187703B2, “Crystalline forms of N-(3-(2-(2-hydroxyethoxy)-6-morpholinopyridin-4-yl)-4-methvlphenyl)-2 (trifluoromethyl)isonicotinamide as Raf inhibitors for the treatment of cancer” (NOVARTIS AG, priority 2019, dated 2025):
# “And” between values parts separate entries of the source, which are not always exact repeats. Equal values may be shown once. Read-outs that look alike come from different tables or passages of the source.
# What was measured:
# Assay type in all cases: physicochemical
# [1] = Bulk density and flowability with ring shear tester
# Method: (§1) Pilot manufacture batches producing Modification HA and Form A on kilogram scale were compared for their respective bulk powder properties. The particle size distribution (PSD) was determined according to the corresponding method for release. Other measurements were performed using technical methods known in the art or as described herein.
# [2] = Behaviour under compression, grinding and granulation with water
# [3] = Stability testing, solid state bulk (UPLC, color, XRPD, TGA); parameters: key: A: No change of color; settings: solid state
# Method: (§2) X-ray powder diffraction (XRPD) analysis of all polymorph forms was performed using a Bruker D8 Discover x-ray diffractometer with XYZ stage. Measurements were taken at about 40 kV and 1 mA under the following conditions:
# (§3) Crystalline Monohydrate Form HA was analysed by thermogravimetric analysis (TGA) using a Discovery Thermogravimetric Analysis Calorimeter from TA instruments under the following conditions (see Table 6).
# (§4) No notable change in chemical purity, nor change in XRPD, nor change in TGA, was observed.
# [4] = Solubility at 25° C., 24 hours slurry; settings: for Solubility / solubility at 24 h: approx. at 25° C., target concentration 10 mg/mL; for Final pH / XRPD of solid after equilibration: 25° C.; for solubility at 24 h: 25 °C, thermodynamic from solid, read-out: Solubility
# Method: A sample was weighed in a glass vial and solvent added to make a slurry followed by stirring or shaking at 25° C. for 24 hours. The amount of sample and solvents depends on the target concentration, e.g. if the target concentration is 10 mg/mL, the weight of the sample should be 10 mg and the amount of solvent volume should be 1 mL. The solid and liquid are separated by centrifugation at 13000 rpm for 2 minutes with 0.2 μm membrane. The filtrate is then used for the solubility test after appropriate dilution. The diluent is from the UPLC method. The solids obtained after equilibration were analyzed by XRPD after being dried at 40° C. under vacuum for 2 hours. DSC/TGA analysis was conducted for selected samples.
# [5] = Hygroscopicity, storage and solubility conclusions
# Excerpt: The term “non-hygroscopic” as used herein refers to a compound showing a water uptake of at most 2 w-% in the sorption cycle when measured with GMS (or DVS) at a relative humidity in the range of from 0 to 95% RH and a temperature of (25.0±0.1) ° C., based on the weight of the compound. Non-hygroscopic is preferably up to 0.2%.
# [6] = Stability testing, solid state bulk (UPLC, color, XRPD, TGA); settings: for Degradation Products (DP), UPLC / TGA (%) Weight loss at 175° C. / XRPD: solid state
# Method: as §2, §3, §4
# [7] = Particle size distribution by Fraunhofer light diffraction
# Method: as §1
# A few drops of the dispersing aid were added to an appropriate amount of test substance. The mixture was mixed intensively, e.g. on a vortex mixer, in order to wet the substance thoroughly and to form a smooth and homogeneous paste. The resultant paste was diluted with the dispersion liquid to a final volume of 3-6 ml and the dispersion mixed again. The cumulative volume distribution was determined using a laser light diffraction instrument as stated above. The parameters could be adjusted accordingly so that the test dispersion is representative, homogeneous and well dispersed.
# Particle sizes were determined at the undersize values of 10%, 50% and 90% (×10, ×50, ×90), and additional values in question, from the cumulative volume distribution.
# [8] = 1 week/80° C., glass vials with screw caps
# [9] = 1 week/80° C./75% RH, open bottles
# [10] = 2 weeks/50° C., glass vials with screw caps
# [11] = 2 weeks/50° C./75% RH, open bottles
# [12] = 2 weeks/80° C., glass vials with screw caps
# [13] = 2 weeks/80° C./75% RH, open bottles
# [14] = 3 months/40° C./75% RH, open bottles
# [15] = 4 weeks/50° C., glass vials with screw caps
# [16] = 4 weeks/50° C./75% RH, open bottles
# [17] = Xenon light (approx. 1200 kLuxh)
# [18] = pilot manufacture batch, kilogram scale
smiles,measurement,setting,value
"Cc1ccc(NC(=O)c2ccnc(C(F)(F)F)c2)cc1-c1cc(OCCO)nc(N2CCOCC2)c1 [Monohydrate HA, N-(3-(2-(2-hydroxyethoxy)-6-morpholinopyridin-4-yl)-4-methylphenyl)-2-(trifluoromethyl)isonicotinamide]","Factor of bulk density, Monohydrate HA versus Modification A",[1]; 696 kg/m^3 versus 71 kg/m^3,~10
same,"Bulk flowability with ring shear tester, rating in words",[1]; under 1250 Pa normal stress,“free flowing”
same,Technical measurement of bulk flowability with ring shear tester,[1]; under 1250 Pa normal stress,13.7
same,Technical measurement of bulk density with ring shear tester,[1]; under no consolidation stress,696 kg/m^3
same,"Stability upon compression, grinding and wet granulation with water",[2],"stable upon compression, grinding and wet granulation with water"
same,Color (CL),[3]; [8],A
same,Color (CL),[3]; [9],A
same,Color (CL),[3]; [10],A
same,Color (CL),[3]; [11],A
same,Color (CL),[3]; [12],A
same,Color (CL),[3]; [13],A
same,Color (CL),[3]; [14],A
same,Color (CL),[3]; [15],A
same,Color (CL),[3]; [16],A
same,Color (CL),[3]; [17],A
same,Solubility,"[4]; FaSSIF (pH 6.5), LOQ = 0.002517 mg/mL",LOQ
same,Final pH,"[4]; FaSSIF, pH 6.5",6.44
same,XRPD of solid after equilibration,"[4]; FaSSIF, pH 6.5",No change
same,solubility at 24 h,"[4]; FeSSIF, pH 5.8, fessif, FeSSIF (pH 5.8), LOQ = 0.002517 mg/mL",3.2 µg/mL
same,Final pH,"[4]; FeSSIF, pH 5.8",5.69
same,XRPD of solid after equilibration,"[4]; FeSSIF, pH 5.8",No change
same,Final pH,[4]; SGF (pH 2),2.07
same,XRPD of solid after equilibration,[4]; SGF (pH 2),No change
same,solubility at 24 h,"[4]; SGF, pH 2, simulated gastric fluid, SGF (pH 2), LOQ = 0.002517 mg/mL",2.2 µg/mL
same,Final pH,[4]; Water,7.22
same,XRPD of solid after equilibration,[4]; Water,No change
same,Solubility,"[4]; Water, LOQ = 0.002517 mg/mL",LOQ
same,solubility at 24 h,"[4]; acetonitrile, organic solvent or mixture, Acetonitrile",> 10000 µg/mL
same,solubility at 24 h,"[4]; dichloromethane, organic solvent or mixture, Dichloromethane",> 10000 µg/mL
same,solubility at 24 h,"[4]; ethanol abs., organic solvent or mixture, Ethanol abs.",> 10000 µg/mL
same,solubility at 24 h,"[4]; ethyl acetate, organic solvent or mixture, Ethyl acetate",> 10000 µg/mL
same,solubility at 24 h,"[4]; methanol, organic solvent or mixture, Methanol",> 10000 µg/mL
same,solubility at 24 h,"[4]; octanol, organic solvent or mixture, Octanol",> 10000 µg/mL
same,Final pH,[4]; pH 1 (0.1N HCl),1.06
same,XRPD of solid after equilibration,[4]; pH 1 (0.1N HCl),No change
same,Solubility,"[4]; pH 1 (0.1N HCl), LOQ = 0.002517 mg/mL",LOQ
same,Final pH,[4]; pH 2 (0.01N HCl),2.12
same,XRPD of solid after equilibration,[4]; pH 2 (0.01N HCl),No change
same,Solubility,"[4]; pH 2 (0.01N HCl), LOQ = 0.002517 mg/mL",LOQ
same,Final pH,[4]; pH 4.7 acetate buffer,4.73
same,XRPD of solid after equilibration,[4]; pH 4.7 acetate buffer,No change
same,Solubility,"[4]; pH 4.7 acetate buffer, LOQ = 0.002517 mg/mL",LOQ
same,Final pH,[4]; pH 6.8 phosphate buffer,6.74
same,XRPD of solid after equilibration,[4]; pH 6.8 phosphate buffer,No change
same,Solubility,"[4]; pH 6.8 phosphate buffer, LOQ = 0.002517 mg/mL",LOQ
same,Final pH,[4]; pH 9.0 borate buffer,8.88
same,XRPD of solid after equilibration,[4]; pH 9.0 borate buffer,No change
same,Solubility,"[4]; pH 9.0 borate buffer, LOQ = 0.002517 mg/mL",LOQ
same,"Solubility, overall rating",[5],adequate solubility
same,Stability when stored in bulk quantities,[5],stable when stored in bulk quantities
same,Hygroscopicity,"[5]; non-hygroscopic defined as water uptake at most 2 w-%, 0 to 95% RH, 25° C. (GMS/DVS)",non-hygroscopic
same,Stability upon light exposure,[6]; 1200 kLuxh for 12 h,stable upon light exposure
same,"Degradation Products (DP), UPLC",[6]; [8],0.27%
same,TGA (%) Weight loss at 175° C.,[6]; [8],3.60% and 3.56%
same,XRPD,[6]; [8],No change
same,"Degradation Products (DP), UPLC",[6]; [9],0.30% and 0.26%
same,TGA (%) Weight loss at 175° C.,[6]; [9],3.76% and 3.86%
same,XRPD,[6]; [9],No change
same,"Degradation Products (DP), UPLC",[6]; [10],0.29% and 0.33%
same,TGA (%) Weight loss at 175° C.,[6]; [10],3.76% and 3.89%
same,XRPD,[6]; [10],No change
same,"Degradation Products (DP), UPLC",[6]; [11],0.27% and 0.25%
same,TGA (%) Weight loss at 175° C.,[6]; [11],3.66% and 3.65%
same,XRPD,[6]; [11],No change
same,"Degradation Products (DP), UPLC",[6]; [12],0.29%
same,TGA (%) Weight loss at 175° C.,[6]; [12],3.67% and 3.76%
same,XRPD,[6]; [12],No change
same,"Degradation Products (DP), UPLC",[6]; [13],0.26% and 0.28%
same,TGA (%) Weight loss at 175° C.,[6]; [13],3.60% and 3.66%
same,XRPD,[6]; [13],No change
same,"Degradation Products (DP), UPLC",[6]; [14],0.53% and 0.30%
same,TGA (%) Weight loss at 175° C.,[6]; [14],3.55% and 3.60%
same,XRPD,[6]; [14],No change
same,"Degradation Products (DP), UPLC",[6]; [15],0.28% and 0.27%
same,TGA (%) Weight loss at 175° C.,[6]; [15],3.75% and 3.63%
same,XRPD,[6]; [15],No change
same,"Degradation Products (DP), UPLC",[6]; [16],0.30% and 0.27%
same,TGA (%) Weight loss at 175° C.,[6]; [16],3.78% and 3.69%
same,XRPD,[6]; [16],No change
same,"Degradation Products (DP), UPLC",[6]; [17],0.36% and 0.30%
same,TGA (%) Weight loss at 175° C.,[6]; [17],3.76% and 3.90%
same,XRPD,[6]; [17],No change
same,Stability in bulk,"[6]; up to 80° C. over an extended period of time, no notable change in chemical purity, XRPD, TGA",highly stable in bulk
same,"Factor of diameter X10, Monohydrate HA vs. Modification A",[7]; 131 μm vs. 2 μm,> 10
same,"Diameter X of PSD measured during release, X50",[7]; [18],X50: 277 μm
same,"Diameter X of PSD measured during release, X90",[7]; [18],X90: 414 μm
